Results as given in PubChem BioAssay AID2060906 (Molecular Pharmacology Branch, DTP, NCI, 2025).
pIC50: −log10 of the molar value.

System: 485176-168-R4-J1-PDC complex spheroid growth
Experiment: Anticancer human tumor 485176-168-R4-J1-PDC patient-derived pancreatic adenocarcinoma cell line growth inhibition [RAS]
Conditions: for pIC50: curve of first compound; for viability, T/C: stronger effect = lower value
In short: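 Multi-cell-type spheroids: tumor cells plus HUVEC endothelial cells and mesenchymal stem cells. RAS-pathway inhibitors were combined with targeted agents, each dosed in half-log steps down from clinical Cmax, or from 10 microM when Cmax was unknown.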
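Also: spheroids exposed to compounds for seven days before readout.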
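For viability, T/C in this document: luminescence viability expressed relative to DMSO vehicle wells set as 100%.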

**Q.** With `CC1(C)CCC(Nc2ncc(C(F)(F)F)c(-c3c[nH]c4c(P(C)(C)=O)c(C#N)ccc34)n2)CN1` (centres undefined) + CCn1c(-c2cccnc2C(C)OC)c2c3cc(ccc31)N1CCOC(CC(NC(=O)C(C(C)C)N(C)C(=O)C3(F)CCN(C(=O)C#CC(C)(C)N(C)C)CC3)C(=O)N3CCCC(N3)C(=O)OCC(C)(C)C2)C1 as the compound, how does the pIC50 (second compound 0.000949 µM) read?
**A.** < 6.52

**Q.** What about the pIC50 (second compound 0.003 µM) of the same compound?
**A.** < 6.52

**Q.** What about the pIC50 (second compound 0.00949 µM) of the same compound?
**A.** 7.18

**Q.** And the pIC50 (second compound 0.03 µM)?
**A.** 7.58

**Q.** What about the pIC50 (second compound 0.0949 µM) of the same compound?
**A.** 7.68

**Q.** And the pIC50 (second compound 0.3 µM)?
**A.** 7.88

**Q.** What about the viability, T/C (second compound 0.000949 µM, first compound 0.000949 µM) of the same compound?
**A.** 91.9%

**Q.** What about the viability, T/C (second compound 0.000949 µM, first compound 0.003 µM) of the same compound?
**A.** 93.3%

**Q.** What about the viability, T/C (second compound 0.000949 µM, first compound 0.00949 µM) of the same compound?
**A.** 86.8%

**Q.** And the viability, T/C (second compound 0.000949 µM, first compound 0.03 µM)?
**A.** 59.5%

**Q.** What about the viability, T/C (second compound 0.000949 µM, first compound 0.0949 µM) of the same compound?
**A.** 52.8%

**Q.** And the viability, T/C (second compound 0.000949 µM, first compound 0.3 µM)?
**A.** 54.1%

**Q.** And the viability, T/C (second compound 0.003 µM, first compound 0.000949 µM)?
**A.** 99.1%

**Q.** What about the viability, T/C (second compound 0.003 µM, first compound 0.003 µM) of the same compound?
**A.** 90.7%

**Q.** And the viability, T/C (second compound 0.003 µM, first compound 0.00949 µM)?
**A.** 87.5%

**Q.** And the viability, T/C (second compound 0.003 µM, first compound 0.03 µM)?
**A.** 58.3%

**Q.** What about the viability, T/C (second compound 0.003 µM, first compound 0.0949 µM) of the same compound?
**A.** 54.5%

**Q.** What about the viability, T/C (second compound 0.003 µM, first compound 0.3 µM) of the same compound?
**A.** 51.7%

**Q.** And the viability, T/C (second compound 0.00949 µM, first compound 0.000949 µM)?
**A.** 97.6%

**Q.** And the viability, T/C (second compound 0.00949 µM, first compound 0.003 µM)?
**A.** 91%

**Q.** And the viability, T/C (second compound 0.00949 µM, first compound 0.00949 µM)?
**A.** 82.2%

**Q.** What about the viability, T/C (second compound 0.00949 µM, first compound 0.03 µM) of the same compound?
**A.** 54.1%

**Q.** And the viability, T/C (second compound 0.00949 µM, first compound 0.0949 µM)?
**A.** 50.5%

**Q.** What about the viability, T/C (second compound 0.00949 µM, first compound 0.3 µM) of the same compound?
**A.** 44.9%

**Q.** What about the viability, T/C (second compound 0.03 µM, first compound 0.000949 µM) of the same compound?
**A.** 89.4%

**Q.** And the viability, T/C (second compound 0.03 µM, first compound 0.003 µM)?
**A.** 112%

**Q.** And the viability, T/C (second compound 0.03 µM, first compound 0.00949 µM)?
**A.** 73.5%

**Q.** And the viability, T/C (second compound 0.03 µM, first compound 0.03 µM)?
**A.** 54.5%

**Q.** And the viability, T/C (second compound 0.03 µM, first compound 0.0949 µM)?
**A.** 39%

**Q.** And the viability, T/C (second compound 0.03 µM, first compound 0.3 µM)?
**A.** 47.9%

**Q.** And the viability, T/C (second compound 0.0949 µM, first compound 0.000949 µM)?
**A.** 77.9%

**Q.** What about the viability, T/C (second compound 0.0949 µM, first compound 0.003 µM) of the same compound?
**A.** 87.1%

**Q.** What about the viability, T/C (second compound 0.0949 µM, first compound 0.00949 µM) of the same compound?
**A.** 67.7%

**Q.** What about the viability, T/C (second compound 0.0949 µM, first compound 0.03 µM) of the same compound?
**A.** 42.2%

**Q.** What about the viability, T/C (second compound 0.0949 µM, first compound 0.0949 µM) of the same compound?
**A.** 34.6%

**Q.** And the viability, T/C (second compound 0.0949 µM, first compound 0.3 µM)?
**A.** 34.1%

**Q.** And the viability, T/C (second compound 0.3 µM, first compound 0.000949 µM)?
**A.** 81.9%

**Q.** And the viability, T/C (second compound 0.3 µM, first compound 0.003 µM)?
**A.** 69.1%

**Q.** What about the viability, T/C (second compound 0.3 µM, first compound 0.00949 µM) of the same compound?
**A.** 58.7%

**Q.** What about the viability, T/C (second compound 0.3 µM, first compound 0.03 µM) of the same compound?
**A.** 34%

**Q.** What about the viability, T/C (second compound 0.3 µM, first compound 0.0949 µM) of the same compound?
**A.** 26.8%

**Q.** And the viability, T/C (second compound 0.3 µM, first compound 0.3 µM)?
**A.** 30.5%

**Q.** For `CC(C)n1nc(-c2ccc3oc(N)nc3c2)c2c(N)ncnc21`, which viability, T/C (compound 0.000316 µM) is on record?
**A.** 104% [middle of 4 runs]

**Q.** What about the viability, T/C (compound 0.001 µM) of the same compound?
**A.** 77.8% [middle of 4 runs]

**Q.** And the viability, T/C (compound 0.00316 µM)?
**A.** 84.1% [middle of 4 runs]

**Q.** What about the viability, T/C (compound 0.01 µM) of the same compound?
**A.** 77.2% [middle of 4 runs]

**Q.** What about the viability, T/C (compound 0.0316 µM) of the same compound?
**A.** 49.2% [middle of 4 runs]

**Q.** What about the viability, T/C (compound 0.1 µM) of the same compound?
**A.** 22.3% [middle of 4 runs]

**Q.** And the IC50 (curve of compound)?
**A.** 31.2 nM [middle of 4 runs]
